According to ChEMBL document CHEMBL4033619, “Autophagy antagonizes apoptosis induced by flavan enantiomers from Daphne giraldii in hepatic carcinoma cells in vitro” (Eur J Med Chem, 2017):
Active and inactive are the calls of the source. The rule behind the calls is not given here.

Tests used:
[1] = test system: Hep 3B2; experiment: Effect on AMPK expression in human Hep3B cells at 15 to 60 uM by Western blot analysis; type: functional, cell-based
[2] = test system: HepG2; experiment: Cytotoxicity against human HepG2 cells by MTT assay; type: functional, cell-based
[3] = test system: Hep 3B2; experiment: Induction of apoptosis in human Hep3B cells assessed as increase in cleaved PARP level at 30 uM in presence of autophagy inhibitor bafilomycin A1 by Western blot analysis; type: functional, cell-based
[4] = test system: MCF7; experiment: Cytotoxicity against human MCF7 cells by MTT assay; type: functional, cell-based
[5] = test system: Hep 3B2; experiment: Induction of apoptosis in human Hep3B cells assessed as increase in Bax level by Western blot analysis; type: functional, cell-based
[6] = test system: Hep 3B2; experiment: Growth inhibition of human Hep3B cells after 48 hrs by MTT assay; type: functional, cell-based
[7] = test system: Hep 3B2; experiment: Induction of apoptosis in human Hep3B cells assessed as increase in caspase 9 level by Western blot analysis; type: functional, cell-based
[8] = test system: MCF7; experiment: Growth inhibition of human MCF7 cells after 48 hrs by MTT assay; type: functional, cell-based
[9] = test system: Hep 3B2; experiment: Induction of apoptosis in human Hep3B cells assessed as increase in caspase 8 level at 30 uM in presence of autophagy inhibitor bafilomycin A1 by Western blot analysis; type: functional, cell-based
[10] = test system: Hep 3B2; experiment: Induction of apoptosis in human Hep3B cells assessed as effect on cleaved PARP level at 15 to 60 uM by Western blot analysis; type: functional, cell-based
[11] = target: T1, AMP-activated protein kinase, AMPK (Homo sapiens) (UniProt P54646+O43741+P54619+Q9UGJ0+Q9Y478+Q13131+Q9UGI9); experiment: Increase in AMPK phosphorylation at Thr172 in human Hep3B cells at 15 to 60 uM by Western blot analysis; type: cell-based
[12] = target: T1, AMP-activated protein kinase, AMPK (Homo sapiens); experiment: Increase in AMPK phosphorylation at Thr172 in human Hep3B cells at 30 uM in presence of autophagy inhibitor bafilomycin A1 by Western blot analysis; type: cell-based
[13] = test system: HepG2; experiment: Growth inhibition of human HepG2 cells after 48 hrs by MTT assay; type: functional, cell-based
[14] = test system: Hep 3B2; experiment: Induction of apoptosis in human Hep3B cells assessed as increase in caspase 7 level by Western blot analysis; type: functional, cell-based
[15] = test system: Hep 3B2; experiment: Induction of apoptosis in human Hep3B cells assessed as decrease in PARP level at 15 to 60 uM by Western blot analysis; type: functional, cell-based
[16] = test system: Hep 3B2; experiment: Induction of autophagy in human Hep3B cells assessed as decrease in p62 level at 15 to 60 uM by Western blot analysis; type: functional, cell-based
[17] = test system: Hep 3B2; experiment: Induction of apoptosis in human Hep3B cells assessed as increase in caspase 7 level at 30 uM in presence of autophagy inhibitor bafilomycin A1 by Western blot analysis; type: functional, cell-based
[18] = test system: Hep 3B2; experiment: Cytotoxicity against human Hep3B cells assessed as reduction in cell growth at 30 uM in presence of autophagy inhibitor bafilomycin A1 by MTT assay; type: functional, cell-based
[19] = test system: A549; experiment: Cytotoxicity against human A549 cells by MTT assay; type: functional, cell-based
[20] = test system: Hep 3B2; experiment: Induction of apoptosis in human Hep3B cells assessed as cell shrinkage at 30 uM after 48 hrs by phase contrast microscopic analysis; type: functional, cell-based
[21] = test system: Hep 3B2; experiment: Induction of apoptosis in human Hep3B cells assessed as chromatin condensation at 30 uM after 48 hrs by Hoechst 33258 staining-based fluorescence microscopy; type: functional, cell-based
[22] = test system: Hep 3B2; experiment: Induction of apoptosis in human Hep3B cells assessed as increase in caspase 9 level at 30 uM in presence of autophagy inhibitor bafilomycin A1 by Western blot analysis; type: functional, cell-based
[23] = test system: Hep 3B2; experiment: Induction of apoptosis in human Hep3B cells assessed as increase in FADD level by Western blot analysis; type: functional, cell-based
[24] = test system: Hep 3B2; experiment: Induction of apoptosis in human Hep3B cells assessed as chromatin condensation at 30 uM in presence of autophagy inhibitor bafilomycin A1 by Hoechst 33258 staining-based fluorescence microscopy; type: functional, cell-based
[25] = test system: Hep 3B2; experiment: Induction of apoptosis in human Hep3B cells assessed as nuclear fragmentaion at 30 uM after 48 hrs by Hoechst 33258 staining-based fluorescence microscopy; type: functional, cell-based
[26] = test system: Hep 3B2; experiment: Induction of autophagy in human Hep3B cells assessed as increase in conversion of LC3-1 to LC3-2 at 10 to 60 uM by Western blot analysis; type: functional, cell-based
[27] = test system: Hep 3B2; experiment: Induction of apoptosis in human Hep3B cells assessed as increase in caspase 8 level by Western blot analysis; type: functional, cell-based
[28] = test system: A549; experiment: Growth inhibition of human A549 cells after 48 hrs by MTT assay; type: functional, cell-based
[29] = test system: Hep 3B2; experiment: Induction of apoptosis in human Hep3B cells assessed as increase in Bax level at 30 uM in presence of autophagy inhibitor bafilomycin A1 by Western blot analysis; type: functional, cell-based
[30] = test system: Hep 3B2; experiment: Induction of autophagy in human Hep3B cells at 30 uM after 48 hrs by MDC staining-based fluorescence microscopic method; type: functional, cell-based
[31] = test system: Hep 3B2; experiment: Induction of apoptosis in human Hep3B cells assessed as decrease in PARP level at 30 uM in presence of autophagy inhibitor bafilomycin A1 by Western blot analysis; type: functional, cell-based
[32] = test system: Hep 3B2; experiment: Down regulation of AMPK expression in human Hep3B cells at 30 uM in presence of autophagy inhibitor bafilomycin A1 by Western blot analysis; type: functional, cell-based
[33] = test system: Hep 3B2; experiment: Induction of apoptosis in human Hep3B cells assessed as nuclear fragmentation at 30 uM in presence of autophagy inhibitor bafilomycin A1 by Hoechst 33258 staining-based fluorescence microscopy; type: functional, cell-based
[34] = test system: Hep 3B2; experiment: Induction of apoptosis in human Hep3B cells assessed as increase in FADD level at 30 uM in presence of autophagy inhibitor bafilomycin A1 by Western blot analysis; type: functional, cell-based
[35] = test system: Hep 3B2; experiment: Induction of apoptosis in human Hep3B cells assessed as membrane blebbing at 30 uM after 48 hrs by phase contrast microscopic analysis; type: functional, cell-based
[36] = test system: Hep 3B2; experiment: Cytotoxicity against human Hep3B cells by MTT assay; type: functional, cell-based

## CC(C)=CCc1c([C@H]2CCc3ccc(O)cc3O2)cc2c(c1O)OC(C)(C)C=C2
[1]
  Activity: inactive
[2]
  IC50: 64.2 µM
[3]
  Activity: Active
[4]
  IC50: > 100 µM
[5]
  Activity: Dose-dependent effect
[6]
  growth inhibition (GI): Dose-dependent effect
[7]
  Activity: Dose-dependent effect
[8]
  growth inhibition (GI): Dose-dependent effect
[9]
  Activity: Active
[10]
  Activity: Active
[11]
  Activity: Active
[12]
  Activity: Active
[13]
  growth inhibition (GI): Dose-dependent effect
[14]
  Activity: Dose-dependent effect
[15]
  Activity: Active
[16]
  Activity: Active
[17]
  Activity: Active
[18]
  Activity: Active
[19]
  IC50: > 100 µM
[20]
  Activity: Active
[21]
  Activity: Active
[22]
  Activity: Active
[23]
  Activity: Dose-dependent effect
[24]
  Activity: Active
[25]
  Activity: Active
[26]
  Activity: Active
[27]
  Activity: Dose-dependent effect
[28]
  growth inhibition (GI): Dose-dependent effect
[29]
  Activity: Active
[30]
  Activity: Active
[31]
  Activity: Active
[32]
  Activity: Active
[33]
  Activity: Active
[34]
  Activity: Active
[35]
  Activity: Active
[36]
  IC50: 30.3 µM

## CC(C)=CCc1c(C2CCc3ccc(O)cc3O2)cc2c(c1O)OC(C)(C)C=C2 (racemic)
[2]
  IC50: 92.3 µM
[4]
  IC50: > 100 µM
[6]
  growth inhibition (GI): Dose-dependent effect
[8]
  growth inhibition (GI): Dose-dependent effect
[13]
  growth inhibition (GI): Dose-dependent effect
[19]
  IC50: 92.5 µM
[28]
  growth inhibition (GI): Dose-dependent effect
[36]
  IC50: 97.8 µM

## CC1(C)CCc2c([C@@H]3CCc4ccc(O)cc4O3)ccc(O)c2O1
[2]
  IC50: > 100 µM
[4]
  IC50: > 100 µM
[6]
  growth inhibition (GI): Dose-dependent effect
[8]
  growth inhibition (GI): Dose-dependent effect
[13]
  growth inhibition (GI): Dose-dependent effect
[19]
  IC50: > 100 µM
[28]
  growth inhibition (GI): Dose-dependent effect
[36]
  IC50: 44.7 µM

## O=c1[nH]cc(F)c(=O)[nH]1 [FLUOROURACIL]
[2]
  IC50: 32.6 µM
[4]
  IC50: 30 µM
[36]
  IC50: 11.9 µM

## CC1(C)C=Cc2c([C@H]3CCc4ccc(O)cc4O3)ccc(O)c2O1
[2]
  IC50: > 100 µM
[4]
  IC50: > 100 µM
[6]
  growth inhibition (GI): Dose-dependent effect
[8]
  growth inhibition (GI): Dose-dependent effect
[13]
  growth inhibition (GI): Dose-dependent effect
[19]
  IC50: > 100 µM
[28]
  growth inhibition (GI): Dose-dependent effect
[36]
  IC50: 63.6 µM

## CC1(C)C=Cc2c([C@@H]3CCc4ccc(O)cc4O3)ccc(O)c2O1
[2]
  IC50: > 100 µM
[4]
  IC50: > 100 µM
[6]
  growth inhibition (GI): Dose-dependent effect
[8]
  growth inhibition (GI): Dose-dependent effect
[13]
  growth inhibition (GI): Dose-dependent effect
[19]
  IC50: > 100 µM
[28]
  growth inhibition (GI): Dose-dependent effect
[36]
  IC50: 75.7 µM

## CC(C)=CCc1c([C@H]2CCc3ccc(O)cc3O2)ccc(O)c1O [KAZINOL U]
[2]
  IC50: > 100 µM
[4]
  IC50: > 100 µM
[6]
  growth inhibition (GI): Dose-dependent effect
[8]
  growth inhibition (GI): Dose-dependent effect
[13]
  growth inhibition (GI): Dose-dependent effect
[19]
  IC50: > 100 µM
[28]
  growth inhibition (GI): Dose-dependent effect
[36]
  IC50: 51.1 µM
